Values quoted from earlier work in US6353019B1, “Macrocyclic lactones, compositions, and methods of use” (United States of America as represented by the Department …, priority 1997, dated 2002).

Details: reported by Suzumure et al., Tetrahedron Lett. 1997; cited from earlier work

## lobatamide A
  antifungal activity: weak antifungal activity
